Test results published in US20140275090A1, “BILE ACID RECYCLING INHIBITORS FOR TREATMENT OF PRIMARY SCLEROSING CHOLANGITIS AND INFLAMMATORY BOWEL DISEASE” (Lumena Pharmaceuticals, Inc., priority 2013, published 2014).
Several values for one entry are separate records, joined by “and”; a condition that tells them apart may be missing. Equal entries are not always repeated.

Legend:
fecal bile acids = test: Fecal bile acid excretion in ZDF rats after oral 264W94; type: in vivo, ZDF rat; details: 0.001-10 mg/kg oral gavage twice a day, 2 weeks
Protocol: (§1) Male Zucker diabetic fatty rats (ZDF/GmiCrl-fa/fa) were purchased from Charles River (Raleigh, N.C.) and housed under controlled conditions (12:12 light-dark cycle, 24° C. and 50% relative humidity) with free access to rodent food (Purina 5008, Harlan Teklad, Indianapolis, Ind.). All rats arrived at seven weeks of age (±3 days). After a one-week acclimation period, rats were anesthetized with isoflurane (Abbott Laboratories, IL) and tail-vein blood samples were collected at 9 am without fasting. Blood glucose levels were measured using a glucometer (Bayer, Leverkusen, Germany). In order to ensure balanced treatment groups, ZDF rats were assigned to six treatment groups based upon baseline glucose: vehicle (0.5% HPMC, 0.1% Tween80) and five doses of 264W94 (0.001, 0.01, 0.1, 1, 10 mg/kg). All treatments were given via oral gavage twice a day and animals were followed for two weeks with blood samples collected from tail vein at the end of each week at 9 am without fasting. Fecal samples were collected for 24 hours during the second week of treatment.
(§2) Non-esterified fatty acids (NEFA), bile acids, and bile acids in fecal extraction were measured using the Olympus AU640 clinical chemistry analyzer (Beckman Coulter, Irving, Tex.).

plasma bile acids = test: Plasma bile acid concentrations in ZDF rats, oral gavage twice a day for 2 weeks; type: in vivo, ZDF rat
Protocol: as §1, with “All treatments were given via oral gavage twice a day and animals were followed for two weeks with blood samples collected from tail vein at the end of each week at 9 am without fasting. Fecal samples were collected for 24 hours during the second week of treatment.” left out
as §2
Male ZDF rats (n=4) were administered vehicle, SC-435 (1, 10 or 30 mg/kg) or LUM002 (0.3, 1, 3, 10 or 30 mg/kg) by oral gavage twice a day for 2 weeks. Plasma bile acid levels were determined at the end of the second week. […] Data are expressed as mean values ±SEM.

total serum bile acids = test: ZDF rat 3-week study: plasma total serum bile acids; type: in vivo; details: ZDF rats, twice daily oral gavage, Week 3
Protocol: (§3) Animals were acclimatized for 5-7 days after arrival.
(§4) Key efficacy, metabolic and liver function parameters were assessed: Total 24 hr fecal and total serum bile acid concentrations; Plasma ALP, ALT, AST, BUN, creatinine; Fasting glucose and insulin concentrations, glucose/insulin ratio, blood percent HbA1c and Oral Glucose Tolerance Test (glucose excursion, insulin, GLP-1); Plasma GLP-1, GLP-2 and FGF21 concentrations.

plasma ALP, ASAT, ALAT = test: ZDF rat 3-week study: liver function (ALP, ASAT, ALAT); type: in vivo; details: ZDF rats, twice daily oral gavage, Week 3
Protocol: as §3, §4

Hemoglobin A1c (HbA1c) = test: ZDF rat 3-week study: baseline-corrected percent HbA1c; type: in vivo; details: ZDF rats, twice daily oral gavage
Protocol: as §3, §4

GLP-2 = test: ZDF rat study: GLP-2 in plasma; type: in vivo; details: non-fasted ZDF rats, 2 weeks treatment, higher doses
Protocol: as §3, §4

[1] = system: plasma lipase, plasma amylase; test: ZDF rat 3-week study: exocrine pancreas function (plasma lipase, amylase); type: in vivo; details: ZDF rats; for Plasma Amylase: Week 3; for Plasma Lipase: Week 3, higher doses
Protocol: as §3, §4

[2] = system: liver injury after partial bile duct ligation; test: Partial bile duct ligation (pBDL) in rats: liver histology and cholangiocyte mitotic figures; type: in vivo, rat; details: for Total number of cholangiocytes in 50 fields / Total number of mitotic figures in 50 fields: pBDL rat, 10 mg/kg once daily oral gavage
Protocol: Rats were anesthetized with isoflurane, the common bile duct exposed by midline laparotomy and a short length of PE-10 tubing placed parallel to the bile duct. A ligature of 4-0 silk suture was tied tightly around the duct and tubing after which the tubing was removed resulting in constriction of the duct lumen without complete obstruction SC-435 was administered to the test group by once daily oral gavage (10 mg/kg) starting one day prior to pBDL surgery.
All animals were euthanized on Day 14. The liver was collected from all animals and preserved in 10% formalin. The preserved livers from all animals were processed, embedded in paraffin, sectioned and stained with hematoxylin and eosin (H&E). The resulting slides were evaluated. Microscopic findings, when present, were graded subjectively on a scale of 0 to 4 according to the intensity and extent of change, where 0=finding not present; 1=minimal; 2=mild; 3=moderate and 4=marked. Additionally, quantitation of cholangiocyte (bile duct epithelial cells) mitotic nuclei was accomplished by counting the number of mitotic cells and the total number of cholangiocytes in 50 randomly selected high-powered (40× objective) fields.

[3] = system: fecal excretion of [14C]taurocholic acid (TCA); test: Fecal excretion of [14C]taurocholic acid in Syrian hamster after LUM002; type: in vivo; details: nonfasted Golden Syrian hamsters, oral gavage, 24 h feces
Protocol: To study the effect of LUM002 on fecal excretion of [^14C]taurocholic acid (TCA) in the Syrian hamster in vivo, [^14C]TCA was administered intraperitoneally 1 hour before dosing the test compound. Each animal was dosed with […] [^14C]TCA. LUM002 was dosed by oral gavage (5 mL/kg per administration) in either 5% (v/v) Solutol with 0.5% hydroxyethylcellulose (HEC) or 0.5% HEC alone. The first half of dose of test compound/vehicle was given 1 hour after [^14C]TCA injection, followed by the second half of dose 7 hours after the first dose of test compound/vehicle. Feces were collected for 24 hours after [^14C]TCA administration and aliquots from feces were combusted for determination of [^14C] excretion.
The ED200 (dose which doubles the fecal excretion of [^14C] label vs. control from dose response curve, including 95% Confidence interval) was calculated from a dose response curve.

[4] = Pharmacokinetics of [14C]LUM002 after single PO or IV administration to rats; type: in vivo, Sprague Dawley Rat
Protocol: To each rat either a single oral (PO; 20 mg/kg free acid) or a single intravenous (IV; 2 mg/kg free acid) dose of [^14C]LUM002 was administered. For PO and IV administration, the test substance was prepared with the adequate amount of water to reach a solution with a concentration of approximately 4 mg/g (PO) and 1 mg/g (IV). Oral administration was a gavage using a stomach tube and IV administration was a bolus injection into the tail vein. Exact doses administered to animals were calculated according to syringe weights.
The doses of radioactivity actually administered were determined by using standards prior to and after treatment of the animals. Blood—Animals were anaesthetized (Isoflurane) for blood sampling (3 animals/time point) and then euthanized by […]. Blood samples (maximal volume from each animal approx. 8 mL) were withdrawn from the abdominal aorta into containers containing a small amount of lithium heparin. and samples were centrifuged for 2 minutes at 1540 g. Aliquots (100 μL) of blood were used for hematocrit determination. Animals for the control groups (male and/or female) were used as predose animals for sampling of untreated biological samples (blood and plasma or liver, myocardium, kidneys only from male control animals). Plasma—To obtain plasma, blood samples were centrifuged for 10 minutes and stored cooled before final division.
Bioanalytical analysis −50 μL of plasma samples were placed into an 1.5 mL reaction tube. 5 μL methanol was added to each sample. For protein precipitation, 100 μL of the internal standard working solution (100 ng/mL of benzyl-13C6-LUM002 in acetonitrile) and 50 μL acetonitrile were added. In case of double blank samples, pure acetonitrile was added. Tubes were sealed and mixed thoroughly for 10 seconds. The tubes were centrifuged for 5 minutes at ≧3000 g. 50 μL of the clear supernatant was transferred into an autoinjector vial and were diluted with 50 μL deionized water. Analysis of samples was performed by using LC-MS/MS (injection volume 50-75 μL) with a lower limit of quantification in the assay of 1 ng/mL for LUM002.

[5] = Pharmacokinetics of LUM002 single 100 mg oral solution in healthy male subjects; type: in vivo, human
Protocol: Healthy male subjects, from 18 to 45 years of age, were given a single oral solution dose (100 mg in 100 mL) of LUM002 under fasting conditions. Blood samples for the determination of LUM002 plasma concentration were collected predose and 0.5, 1, 2, 3, 4, 5, 6, 8, 10, 12, 16, 24, and 48 hours after treatment administration. Plasma was obtained by centrifugation and […] processed for protein precipitation, centrifuged again to remove the precipitate and the supernatant prepared for LC-MS/MS analysis. LUM002 plasma concentrations were determined using a validated liquid chromatography tandem mass spectrometry (LC-MS/MS) assay with a lower limit of quantification (LLOQ) of 0.1 ng/mL. LUM002 plasma concentrations were used to determine the following pharmacokinetic parameters using standard noncompartmental techniques: Cmax, Tmax, AUCslast, and, if applicable due to the low-absorbable characteristics of LUM002, also AUC, AUC0-24 and t1/2z.

CCCC[C@]1(CC)CS(=O)(=O)c2cc(OC)c(OC)cc2[C@@H](c2ccccc2)N1 [Compound 264W94]
elevation of fecal bile acid concentrations vs vehicle treated rats (fecal bile acids): up to 6.5 fold

CCCCC1(CCCC)CS(=O)(=O)c2ccc(N(C)C)cc2[C@@H](c2ccc(OCCCC[N+]34CCN(CC3)CC4)cc2)[C@H]1O.CS(=O)(=O)[O-] [SC-435, 1-[4-[4-[(4R,5R)-3,3-dibutyl-7-(dimethylamino)-2,3,4,5-tetrahydro-4-hydroxy-1,1-dioxido-1-benzothiepin-5-yl]phenoxy]butyl]-4-aza-1-azoniabicyclo[2.2.2]octane methanesulfonate salt]
Plasma bile acid levels (plasma bile acids; ZDF rats, 1, 10 or 30 mg/kg twice a day): decreased
Plasma Total Serum Bile Acids Concentrations (total serum bile acids): statistically significant reductions
Plasma Alkaline Phosphatase (ALP) (plasma ALP, ASAT, ALAT): significant reductions
Baseline-corrected Percent Hemoglobin A1c (HbA1c) (Hemoglobin A1c (HbA1c)): significant dose-dependent reductions
GLP-2 in plasma (GLP-2): significant elevations
Plasma Amylase [1]: Neither LUM002 nor SC-435 cause a statistically significant changes
Plasma Lipase [1]: statistically significant reductions
Hepatocyte necrosis ([2]; pBDL rat livers, Day 14): not present
bile duct proliferation, mixed inflammatory cell infiltration, spindle cell proliferation vs untreated rat livers ([2]; pBDL rat livers, Day 14): reduced incidence and intensity
hepatic necrosis and inflammatory cell infiltration ([2]; pBDL rat livers, by 14 days): less hepatic necrosis and inflammatory cell infiltration
Total number of cholangiocytes in 50 fields ([2]; Day 14, AVG): 533
Total number of mitotic figures in 50 fields ([2]; Day 14, AVG): 0
Total number of mitotic figures in 50 fields ([2]; Day 14, individual rats): 0
Total number of cholangiocytes in 50 fields ([2]; Day 14, individual rats, methanesulfonate salt, 10 mg/kg): 662 and 404
mitotic figures in livers ([2]; pBDL rats, 14 days post surgery): No mitotic figures were observed
morphologic features of liver injury associated cholestasis ([2]; partial bile duct ligation, rats): appeared to ameliorate or inhibit

CCCC[C@]1(CC)CS(=O)(=O)c2ccc(N(C)C)cc2[C@@H](c2cccc(NC(=O)N[C@@H]3O[C@H](COS(=O)(=O)[O-])[C@@H](O)[C@H](OCc4ccccc4)[C@H]3O)c2)[C@H]1O.CCO.O.[K+] [LUM002, potassium((2R,3R,4S,5R,6R)-4-benzyloxy-6-{3-[3-((3S,4R,5R)-3-butyl-7-dimethylamino-3-ethyl-4-hydroxy-1,1-dioxo-2,3,4,5-tetrahydro-1H-benzo[b]thiepin-5-yl)-phenyl]-ureido}-3,5-dihydroxy-tetrahydro-pyran-2-ylmethyl)sulphate ethanolate, hydrate]
effect on fecal excretion of bile acids [3]: significantly increased
AUCinf ([4]; male rat, IV bolus 2 mg/kg free acid): 0.9 ng·h/mL
plasma exposure, 3 female and 1 male animal out of 72 ([4]; rat, PO 20 mg/kg, 2 or 4 h after administration): 1 to 5 ng/mL
plasma exposure, all other animals ([4]; rat, PO 20 mg/kg, limit of quantitation 1 ng/mL): < 1 ng/mL
dose systemically absorbed ([4]; rats): Less than 2%
t1/2 ([5]; 100 mg oral solution, fasting, individual subject): 3.39 h
dose systemically absorbed ([5]; healthy male subjects, 100 mg): Less than 1%
Plasma bile acid levels (plasma bile acids; ZDF rats, 0.3, 1, 3, 10 or 30 mg/kg twice a day): decreased
Plasma Total Serum Bile Acids Concentrations (total serum bile acids): statistically significant reductions
Plasma Alkaline Phosphatase (ALP) (plasma ALP, ASAT, ALAT): significant reductions
Plasma Aspartate Aminotransferase (ASAT) (plasma ALP, ASAT, ALAT): statistically significant reduction
Baseline-corrected Percent Hemoglobin A1c (HbA1c) (Hemoglobin A1c (HbA1c)): significant dose-dependent reductions
GLP-2 in plasma (GLP-2): significant elevations
Plasma Amylase [1]: Neither LUM002 nor SC-435 cause a statistically significant changes
Plasma Lipase [1]: statistically significant reductions
